What was measured:
[1] = Half life in human at 5 to 120 mg,po; format: ADME; conditions: in vivo
[2] = Volume of distribution in mouse; format: ADME, organism-based; conditions: in vivo
[3] = Oral bioavailability in monkey; format: ADME, organism-based, Macaca mulatta; conditions: rhesus monkey, in vivo
[4] = Volume of distribution in human at 80 to 100 mg; format: ADME
[5] = target: Voltage-dependent L-type calcium channel subunit alpha-1C (Homo sapiens, UniProt Q13936); assay: Inhibition of Cav1.2 (unknown origin)
[6] = Half life in rat; format: ADME; conditions: in vivo
[7] = Inhibition of Plasmodium vivax PI4K
Plasmodium cynomolgi [8] = assay: Antimalarial activity against schizont stage Plasmodium cynomolgi infected in primary rhesus monkey hepatocytes; format: functional, organism-based
Plasmodium falciparum [9] = assay: Antimalarial activity against stage 5 Plasmodium falciparum assessed as reduction in oocyst formation in mosquito midgut pretreated 24 hrs before feeding by standard membrane-feeding assay; format: functional, organism-based
[10] = Plasma clearance in mouse; format: ADME, organism-based
Plasmodium falciparum [11] = assay: Antimalarial activity against early stage Plasmodium falciparum gametocytes by luciferase reporter gene assay; format: functional, organism-based
[12] = Half life in monkey; format: ADME, Macaca mulatta; conditions: rhesus monkey, in vivo
[13] = Oral bioavailability in dog; format: ADME, organism-based, Canis lupus familiaris; conditions: in vivo
[14] = Half life in human at 80 to 100 mg; format: ADME
[15] = AUC in human at 5 to 120 mg,po in fed condition; format: ADME; conditions: in vivo
[16] = Half life in mouse; format: ADME, organism-based; conditions: in vivo
Plasmodium cynomolgi [17] = assay: Antimalarial activity against hypnozoites stage Plasmodium cynomolgi infected in primary rhesus monkey hepatocytes measured on day 5; format: functional, organism-based; conditions: 120 h
Plasmodium berghei = assay: Antimalarial activity against Plasmodium berghei infected in mouse assessed reduction in parasitemia; format: functional; design: scale not given: the % may be the effect or the level left
[18] = Plasma clearance in human at 80 to 100 mg; format: ADME
[19] = Half life in human at 5 to 120 mg,po in fast condition; format: ADME; conditions: in vivo
[20] = Plasma clearance in dog; format: ADME, Canis lupus familiaris
[21] = Volume of distribution in rat; format: ADME; conditions: in vivo
Plasmodium falciparum [22] = assay: Ex-vivo antimalarial activity against Plasmodium falciparum serum derived from 40 mg, po treated human after 144 hrs; format: functional, organism-based
[23] = AUC (0 to infinity) in human at 5 to 120 mg,po; format: ADME; conditions: in vivo
Plasmodium falciparum [24] = assay: Antimalarial activity against stage 5 Plasmodium falciparum assessed as reduction in oocyst formation in mosquito midgut at 1 uM after 24 hrs by standard membrane-feeding assay relative to control; format: functional; design: scale not given: the % may be the effect or the level left
Plasmodium falciparum [25] = assay: Antimalarial activity against late stage Plasmodium falciparum gametocytes by luciferase reporter gene assay; format: functional, organism-based
[26] = Plasma clearance in rat; format: ADME
[27] = target: Sodium channel protein type 5 subunit alpha (Homo sapiens, UniProt Q14524); assay: Inhibition of Nav1.5 (unknown origin)
Plasmodium cynomolgi [28] = assay: Antimalarial activity against hypnozoites stage Plasmodium cynomolgi infected in primary rhesus monkey hepatocytes; format: functional, organism-based
[29] = Half life in dog; format: ADME, Canis lupus familiaris; conditions: in vivo
[30] = Half life in human at 5 to 120 mg,po in fed condition; format: ADME; conditions: in vivo
Plasmodium falciparum [31] = assay: Antimalarial activity Plasmodium falciparum infected in po dosed SCID mouse assessed as reduction in parasite growth administered daily for 4 consecutive days and measured on day 7 by flow cytometric analysis; format: functional; conditions: 168 h
[32] = AUC in human at 5 to 120 mg,po in fast condition; format: ADME; conditions: in vivo
Plasmodium falciparum [33] = assay: Antimalarial activity against late stage Plasmodium falciparum gametocytes assessed as reduction in gametogenesis exflagellation after 24 hrs; format: functional, organism-based
[34] = Volume of distribution in dog; format: ADME, Canis lupus familiaris; conditions: in vivo

Chain of Voltage-dependent L-type calcium channel subunit alpha-1C (Q13936 whole entry): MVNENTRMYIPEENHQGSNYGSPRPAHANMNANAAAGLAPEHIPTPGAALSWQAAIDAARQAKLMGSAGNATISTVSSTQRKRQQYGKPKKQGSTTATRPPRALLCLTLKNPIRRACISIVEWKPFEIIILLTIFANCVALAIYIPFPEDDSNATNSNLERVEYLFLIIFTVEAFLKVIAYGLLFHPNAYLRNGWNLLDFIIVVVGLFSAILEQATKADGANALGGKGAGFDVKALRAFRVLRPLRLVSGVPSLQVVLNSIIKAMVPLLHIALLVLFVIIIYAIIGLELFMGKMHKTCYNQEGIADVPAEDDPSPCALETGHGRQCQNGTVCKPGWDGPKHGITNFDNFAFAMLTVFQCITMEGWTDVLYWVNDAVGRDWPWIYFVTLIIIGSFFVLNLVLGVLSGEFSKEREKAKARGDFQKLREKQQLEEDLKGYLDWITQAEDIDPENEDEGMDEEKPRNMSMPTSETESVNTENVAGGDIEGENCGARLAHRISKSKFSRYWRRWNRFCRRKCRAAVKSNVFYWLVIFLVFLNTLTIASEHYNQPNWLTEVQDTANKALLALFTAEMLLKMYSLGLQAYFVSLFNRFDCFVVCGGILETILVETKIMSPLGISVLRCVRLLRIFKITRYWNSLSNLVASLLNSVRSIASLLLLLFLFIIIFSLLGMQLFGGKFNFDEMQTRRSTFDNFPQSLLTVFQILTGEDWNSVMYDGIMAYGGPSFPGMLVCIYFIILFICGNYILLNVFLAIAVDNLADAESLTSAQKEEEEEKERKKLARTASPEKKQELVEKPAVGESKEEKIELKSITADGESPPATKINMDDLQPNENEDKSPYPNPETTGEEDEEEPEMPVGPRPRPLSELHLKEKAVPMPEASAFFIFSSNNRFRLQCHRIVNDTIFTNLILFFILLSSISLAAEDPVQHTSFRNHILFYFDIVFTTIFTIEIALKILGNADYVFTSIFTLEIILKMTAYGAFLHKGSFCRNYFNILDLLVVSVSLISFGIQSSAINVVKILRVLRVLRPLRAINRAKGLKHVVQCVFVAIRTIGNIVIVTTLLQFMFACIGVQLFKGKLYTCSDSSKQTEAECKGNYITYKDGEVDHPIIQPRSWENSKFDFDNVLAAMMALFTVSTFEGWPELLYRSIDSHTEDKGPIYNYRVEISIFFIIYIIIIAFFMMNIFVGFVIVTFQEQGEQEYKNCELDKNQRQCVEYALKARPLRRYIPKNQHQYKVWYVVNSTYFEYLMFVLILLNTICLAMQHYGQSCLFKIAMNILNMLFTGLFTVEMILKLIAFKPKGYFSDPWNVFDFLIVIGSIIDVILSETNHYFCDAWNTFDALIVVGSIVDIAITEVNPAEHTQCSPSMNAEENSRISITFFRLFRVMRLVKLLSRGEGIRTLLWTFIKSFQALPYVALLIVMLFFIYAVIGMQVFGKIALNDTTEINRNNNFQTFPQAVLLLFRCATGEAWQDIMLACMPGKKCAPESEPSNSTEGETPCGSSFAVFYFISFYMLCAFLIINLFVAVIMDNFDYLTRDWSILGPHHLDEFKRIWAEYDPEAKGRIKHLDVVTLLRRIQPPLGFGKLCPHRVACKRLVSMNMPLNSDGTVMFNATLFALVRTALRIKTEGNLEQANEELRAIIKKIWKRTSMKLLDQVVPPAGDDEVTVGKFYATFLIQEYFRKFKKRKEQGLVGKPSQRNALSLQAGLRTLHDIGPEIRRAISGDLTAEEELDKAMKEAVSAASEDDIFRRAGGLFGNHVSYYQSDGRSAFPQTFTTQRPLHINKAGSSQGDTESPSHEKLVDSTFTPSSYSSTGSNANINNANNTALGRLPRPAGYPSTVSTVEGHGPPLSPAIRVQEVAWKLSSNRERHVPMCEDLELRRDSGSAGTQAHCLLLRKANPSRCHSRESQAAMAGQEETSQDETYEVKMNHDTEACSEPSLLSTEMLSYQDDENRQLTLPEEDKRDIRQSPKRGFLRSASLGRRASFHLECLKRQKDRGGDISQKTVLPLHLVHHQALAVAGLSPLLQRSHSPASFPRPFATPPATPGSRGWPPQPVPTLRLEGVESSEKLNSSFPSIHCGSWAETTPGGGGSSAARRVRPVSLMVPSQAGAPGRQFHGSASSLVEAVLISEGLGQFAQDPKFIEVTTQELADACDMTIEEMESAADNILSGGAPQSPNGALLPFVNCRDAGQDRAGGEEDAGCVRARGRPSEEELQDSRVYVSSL
Chain of Sodium channel protein type 5 subunit alpha (Q14524 whole entry): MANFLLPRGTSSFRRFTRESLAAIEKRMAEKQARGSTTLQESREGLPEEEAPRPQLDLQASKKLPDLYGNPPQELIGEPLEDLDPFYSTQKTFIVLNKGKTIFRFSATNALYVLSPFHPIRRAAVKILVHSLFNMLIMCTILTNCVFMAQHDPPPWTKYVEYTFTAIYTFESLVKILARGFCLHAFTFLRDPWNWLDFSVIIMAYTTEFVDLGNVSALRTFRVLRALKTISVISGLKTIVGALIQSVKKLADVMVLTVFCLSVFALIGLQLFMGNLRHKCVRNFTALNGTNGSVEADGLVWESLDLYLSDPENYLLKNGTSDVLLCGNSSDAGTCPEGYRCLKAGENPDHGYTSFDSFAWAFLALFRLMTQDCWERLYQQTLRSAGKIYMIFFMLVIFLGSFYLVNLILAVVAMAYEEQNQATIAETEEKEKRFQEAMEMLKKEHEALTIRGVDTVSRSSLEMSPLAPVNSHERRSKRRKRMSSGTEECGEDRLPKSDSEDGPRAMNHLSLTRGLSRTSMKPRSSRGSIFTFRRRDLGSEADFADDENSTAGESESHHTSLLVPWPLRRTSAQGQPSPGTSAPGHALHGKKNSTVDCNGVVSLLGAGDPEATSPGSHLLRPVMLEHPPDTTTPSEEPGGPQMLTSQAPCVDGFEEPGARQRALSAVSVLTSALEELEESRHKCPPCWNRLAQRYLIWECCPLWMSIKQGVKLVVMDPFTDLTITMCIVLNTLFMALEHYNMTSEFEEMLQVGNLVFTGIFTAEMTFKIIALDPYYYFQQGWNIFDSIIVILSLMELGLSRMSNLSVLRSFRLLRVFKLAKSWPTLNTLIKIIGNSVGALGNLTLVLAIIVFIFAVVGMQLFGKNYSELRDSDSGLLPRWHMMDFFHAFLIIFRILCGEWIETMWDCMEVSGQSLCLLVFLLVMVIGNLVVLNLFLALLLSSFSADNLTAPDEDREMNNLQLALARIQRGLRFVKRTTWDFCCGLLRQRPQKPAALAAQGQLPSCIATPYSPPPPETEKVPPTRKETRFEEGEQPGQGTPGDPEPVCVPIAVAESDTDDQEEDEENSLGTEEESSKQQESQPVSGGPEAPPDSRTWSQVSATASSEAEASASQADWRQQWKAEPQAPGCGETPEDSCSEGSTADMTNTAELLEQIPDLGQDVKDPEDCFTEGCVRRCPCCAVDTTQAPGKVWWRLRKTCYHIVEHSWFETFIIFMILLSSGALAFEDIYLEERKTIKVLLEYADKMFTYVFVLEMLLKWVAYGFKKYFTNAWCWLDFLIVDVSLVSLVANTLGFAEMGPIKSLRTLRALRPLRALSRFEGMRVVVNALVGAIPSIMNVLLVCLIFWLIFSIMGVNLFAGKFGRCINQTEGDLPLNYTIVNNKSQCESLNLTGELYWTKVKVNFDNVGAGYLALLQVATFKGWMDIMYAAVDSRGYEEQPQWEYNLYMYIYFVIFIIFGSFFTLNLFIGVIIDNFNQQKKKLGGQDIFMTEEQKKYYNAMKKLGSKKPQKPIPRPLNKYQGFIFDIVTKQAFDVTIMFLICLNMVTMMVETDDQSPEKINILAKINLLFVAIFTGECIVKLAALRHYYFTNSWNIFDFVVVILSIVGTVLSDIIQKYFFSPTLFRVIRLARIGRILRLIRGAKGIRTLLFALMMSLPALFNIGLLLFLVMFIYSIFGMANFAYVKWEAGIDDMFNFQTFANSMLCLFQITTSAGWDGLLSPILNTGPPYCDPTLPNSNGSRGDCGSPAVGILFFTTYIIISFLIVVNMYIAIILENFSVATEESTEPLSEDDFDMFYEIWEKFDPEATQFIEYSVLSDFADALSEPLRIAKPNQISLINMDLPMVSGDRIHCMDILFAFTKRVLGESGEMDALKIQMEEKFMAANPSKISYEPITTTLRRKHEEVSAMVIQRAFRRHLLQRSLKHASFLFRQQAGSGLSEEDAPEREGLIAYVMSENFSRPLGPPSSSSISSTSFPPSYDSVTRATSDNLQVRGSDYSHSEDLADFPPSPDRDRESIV

CS(=O)(=O)c1ccc(-c2cnc(N)c(-c3ccc(C(F)(F)F)nc3)c2)cc1 [MMV-048]
half-life [1]: 163 to 252 h | Vd [2]: 1.3 to 3 L/kg | bioavailability [3]: 74% | Vd [4]: 2.8 L/kg | IC50 [5]: > 10000 nM | half-life [6]: 9.2 h | IC50 [7]: 3.4 nM | EC50 (Plasmodium cynomolgi [8]): 64 nM | EC50 (Plasmodium falciparum [9]): 111 nM | clearance [10]: 3 mL/min/kg | EC50 (Plasmodium falciparum [11]): 214 nM | half-life [12]: 56 h | bioavailability [13]: 45% | half-life [14]: 90 h | AUC [15]: 29000 ng·h/mL | half-life [16]: 5.6 h | EC50 (Plasmodium cynomolgi [17]): > 10000 nM | Activity (Plasmodium berghei): 98 - 99.5% | clearance [18]: 0.333 mL/min | half-life [19]: 193 h | clearance [20]: 0.6 mL/min/kg | Vd [21]: 1.3 to 3 L/kg | EC50 (Plasmodium falciparum [22]): 24 nM | AUC(0-inf) [23]: 2140 to 156000 ng·h/mL | Activity (Plasmodium falciparum [24]): >25% | EC50 (Plasmodium falciparum [25]): 140 nM | clearance [26]: 6.5 mL/min/kg | IC50 [27]: > 10000 nM | EC50 (Plasmodium cynomolgi [28]): 61 nM | half-life [29]: 58 h | half-life [30]: 210 h | ED90 (Plasmodium falciparum [31]): 0.57 mg/kg | ED99 (Plasmodium falciparum [31]): 1.1 mg/kg | AUC [32]: 21000 ng·h/mL | EC50 (Plasmodium falciparum [33]): 90 nM | Vd [34]: 1.3 to 3 L/kg
